Source: US10718028B2, “Fluorescent probes for abasic site detection” (CASE WESTERN RESERVE UIVERSITY, priority 2015, dated 2020)

Experiments:
[1] = Absorption and emission spectra of AP site binding probes in ethanol; type: physicochemical
Protocol: NMR spectra were recorded on a Varian Mercury 300 MHz, a Varian Inova 400, and a Varian Inova 600 MHz spectrometer at room temperature, except where otherwise noted. Chemical shifts for 1H NMR were reported as 6, parts per million, and referenced to CHCl3 at 7.26 ppm or TMS at 0 ppm. Chemical shifts for ^13C NMR were reported as 6 and referenced to the center line of the CDCl3 triplet at 77.0 ppm or CH2Cl2 pentet at 54.0 ppm. Low resolution mass spectra were recorded on a ThermoScientific LCQ Advantage or a Finnigan LCQ Deca mass spectrometer. Fluorescence data were collected on a Varian Cary Eclipse fluorescence spectrophotometer in a quartz cuvette with a 1 cm pathlength or on a Tecan Infinite M200 scanner. Absorbance data were collected on a Varian Cary 50 Bio UV-Visible Spectrophotometer in a quartz cuvette with a 1 cm path length.
To characterize the fluorescent properties, the absorption and emission spectra were collected for all final compounds.

[2] = Optical properties of Cy7MX in various solvents (Example 2); type: physicochemical
Source text: Fluorescence quantum yield measurements. Fluorescent quantum yields determined by a comparative method to an indocyanine green (ICG) standard (F=0.132 in EtOH) with refractive index correction according to the equation:
[formula] • where F is the quantum yield; m is the slope of the integrated fluorescence intensity as a function of absorbance maxima; n is the refractive index of the solvent (EtOH, 1.3611; MeCN, 1.3442; H2O, 1.333; and CHCl3, 1.4459); and R is the reference sample, ICG in EtOH. Data were collected in a quartz cuvette with a 1 cm path length. Absorbance maxima for each sample were kept at or below 0.2 absorbance units to avoid inner filter effects. Fluorophores were excited at 700 nm and emission spectra integrated from 705 to 1000 nm. Solvents used were spectroscopic grade ethanol and HPLC grade acetonitrile, HPLC grade chloroform, and HPLC grade water. For the water solution, Cy7MX was first dissolved in MeCN and diluted at least 200 fold. SSB Activity Assay General Procedures
The absorption and fluorescence properties of Cy7MX were then evaluated in relatively nonpolar (CHCl3), polar aprotic (MeCN), and polar protic (EtOH and H2O) solvents. […] Likewise, the quantum yields of Cy7MX in these solvents compare favorably with other cyanine dyes (Table 3).

For `CCCN1/C(=C/C=C2\CCCC(/C=C/C3=[N+](CCC)c4ccccc4C3(C)C)=C2Oc2ccc(CC(=O)NCCCON)cc2)C(C)(C)c2ccccc21` [Cy7MX, 2-((E)-2-((E)-2-(4-(2-((3-(aminooxy)propyl)amino)-2-oxoethyl)phenoxy)-3-((E)-2-(3,3-dimethyl-1-propylindolin-2-ylidene)ethylidene)cyclohex-1-en-1-yl)vinyl)-3,3-dimethyl-1-propyl-3H-indol-1-ium 2,2,2-trifluoroacetate], the Stokes shift [1] was 20 nm, the λabs max [1] was 770 nm and the λem max [1] was 796 nm. The Φ ([2]; CHCl3) was 38.2%, the λabs ([2]; CHCl3) was 770 nm and the λem ([2]; CHCl3) was 791 nm. For the same molecule, the absorption maximum ([2]; CHCl3, MeCN, EtOH and H2O) was ~770 nm, the emission maximum ([2]; CHCl3, MeCN, EtOH and H2O) was ~790 nm and the solvatochromic shifts ([2]; CHCl3, MeCN, EtOH and H2O) was “No solvatochromic shifts were observed”. The Φ ([2]; EtOH) was 39.3%, the ε ([2]; EtOH) was 127,000 M−1cm−1 and the λabs ([2]; EtOH) was 770 nm. The λem ([2]; EtOH) was 796 nm, the Φ ([2]; H2O) was 6.6% and the ε ([2]; H2O) was 140,000 M−1cm−1. It also gave a λabs ([2]; H2O) of 767 nm, a λem ([2]; H2O) of 790 nm and a Φ ([2]; MeCN) of 48.7%. The ε ([2]; MeCN) was 154,000 M−1cm−1, the λabs ([2]; MeCN) was 767 nm and the λem ([2]; MeCN) was 789 nm.
